Data from patent US10329294B2, “Pyrazolopyrimidine inhibitors of IRAK4 activity” (MERCK SHARP & DOHME CORP., priority 2015, dated 2019).
Where a name gives a salt, the structure may show the parent alone.

Each compound was assayed against IRAK4 (Homo sapiens (Human), UniProt Q9NWZ3) (assay: IRAK4 Kinase Assay). Conditions: IMAP fluorescence polarization, 0.5 nM GST tagged IRAK4, 100 μM ATP, 30 minutes at 25° C.; read-out: IRAK4 IC50.
Type: biochemical

Chain of IRAK4 (Q9NWZ3 whole entry): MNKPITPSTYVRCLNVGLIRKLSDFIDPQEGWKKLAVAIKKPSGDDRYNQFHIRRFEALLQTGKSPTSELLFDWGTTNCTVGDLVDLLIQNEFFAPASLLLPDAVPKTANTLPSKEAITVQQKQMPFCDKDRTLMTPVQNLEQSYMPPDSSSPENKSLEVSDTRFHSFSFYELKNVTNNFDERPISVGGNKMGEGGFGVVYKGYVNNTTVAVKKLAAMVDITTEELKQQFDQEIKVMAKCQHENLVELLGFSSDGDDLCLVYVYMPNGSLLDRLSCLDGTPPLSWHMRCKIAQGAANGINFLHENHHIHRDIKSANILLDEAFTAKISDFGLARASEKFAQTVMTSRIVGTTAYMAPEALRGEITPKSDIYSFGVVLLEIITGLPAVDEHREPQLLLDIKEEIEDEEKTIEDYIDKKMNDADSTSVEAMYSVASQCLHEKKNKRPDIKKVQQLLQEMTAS

SMILES | IC50 [nM]
N#Cc1sccc1NC(=O)c1cnn2ccc(N3CC4CCC3CN4)nc12 (stereo not drawn) [Example 110, N-(2-cyanothiophen-3-yl)-5-(2,5-diazabicyclo[2.2.2]oct-2-yl)pyrazolo[1,5-a]pyrimidine-3-carboxamide trifluoroacetate] | 193
N#Cc1sccc1NC(=O)c1cnn2ccc(N3CCCNCC3)nc12 [Example 111, N-(2-cyanothiophen-3-yl)-5-(1,4-diazepan-1-yl)pyrazolo[1,5-a]pyrimidine-3-carboxamide trifluoroacetate] | 464
O=C(Nc1ccccc1Br)c1cnn2ccc(N3CC4CCC3CN4)nc12 (stereo not drawn) [Example 112, N-(2-bromophenyl)-5-(2,5-diazabicyclo[2.2.2]oct-2-yl)pyrazolo[1,5-a]pyrimidine-3-carboxamide trifluoroacetate] | 955
N[C@H]1CCCC[C@H]1Nc1ccn2ncc(C(=O)Nc3ccccc3Br)c2n1 [Example 113, 5-{[(1R,2S)-2-aminocyclohexyl]amino}-N-(2-bromophenyl)pyrazolo[1,5-a]pyrimidine-3-carboxamide trifluoroacetate] | 2
N[C@@H]1[C@H](Nc2ccn3ncc(C(=O)Nc4ccccc4C(F)(F)F)c3n2)CCCC1(F)F [Example 114, 5-{[(1R,2R)-2-amino-3,3-difluorocyclohexyl]amino}-N-[2-(trifluoromethyl)phenyl] pyrazolo[1,5-a]pyrimidine-3-carboxamide trifluoroacetate] | 3820
O=C(Nc1ccccc1C(F)(F)F)c1cnn2ccc(N3CC4CCC3CN4)nc12 (stereo not drawn) [Example 115, 5-(2,5-diazabicyclo[2.2.2]oct-2-yl)-N-[2-(trifluoromethyl)phenyl] pyraozlo[1,5-a]pyrimidine-3-carboxamide trifluoroacetate] | 5600
N[C@H]1CCCC[C@H]1Nc1ccn2ncc(C(=O)Nc3ccsc3Cl)c2n1 [Example 116, 5-{[(1R,2S)-2-aminocyclohexyl]amino}-N-(2-chlorothiophen-3-yl)pyrazolo[1,5-a]pyrimidine-3-carboxamide trifluoroacetate] | 1
O=C(Nc1ccsc1Cl)c1cnn2ccc(N3CCCNCC3)nc12 [Example 117, N-(2-chlorothiophen-3-yl)-5-(1,4-diazepan-1-yl)pyrazolo[1,5-a]pyrimidine-3-carboxamide trifluoroacetate] | 403
N[C@@H]1[C@H](Nc2ccn3ncc(C(=O)Nc4ccsc4Cl)c3n2)CCCC1(F)F [Example 118, 5-{[(1R,2R)-2-amino-3,3-difluorocyclohexyl]amino}-N-(2-chlorothiophen-3-yl)pyrazolo[1,5-a]pyrimidine-3-carboxamide trifluoroacetate] | 342
N[C@H]1CCCC[C@H]1Nc1ccn2ncc(C(=O)Nc3cscc3C(F)F)c2n1 [Example 119, 5-{[(1R,2S)-2-aminocyclohexyl]amino}-N-[4-(difluoromethyl)thiophen-3-yl]pyrazolo[1,5-a]pyrimidine-3-carboxamide trifluoroacetate] | 0.5
O=C(Nc1cscc1C(F)F)c1cnn2ccc(N3CCCNCC3)nc12 [Example 120, 5-(1,4-diazepan-1-yl)-N-[4-(difluoromethyl)thiophen-3-yl]pyrazolo[1,5-a]pyrimidine-3-carboxamide trifluoroacetate] | 84
N[C@@H]1[C@H](Nc2ccn3ncc(C(=O)Nc4cscc4C(F)F)c3n2)CCCC1(F)F [Example 121, 5-{[(1R,2R)-2-amino-3,3-difluorocyclohexyl]amino}-N-[4-(difluoromethyl)thiophen-3-yl]pyrazolo[1,5-a]pyrimidine-3-carboxamide trifluoroacetate] | 124
N[C@@H]1[C@H](Nc2ccn3ncc(C(=O)Nc4cscc4Br)c3n2)CCCC1(F)F [Example 122, 5-{[(1R,2R)-2-amino-3,3-difluorocyclohexyl]amino}-N-(4-bromothiophen-3-yl)pyrazolo[1,5-a]pyrimidine-3-carboxamide trifluoroacetate] | 1140
O=C(Nc1cscc1Br)c1cnn2ccc(N3CCCNCC3)nc12 [Example 123, N-(4-bromothiophen-3-yl)-5-(1,4-diazepan-1-yl)pyrazolo[1,5-a]pyrimidine-3-carboxamide trifluoroacetate] | 389
O=C(Nc1cscc1Br)c1cnn2ccc(N3CC4CCC3CN4)nc12 (stereo not drawn) [Example 124, N-(4-bromothiophen-3-yl)-5-(2,5-diazabicyclo[2.2.2]oct-2-yl)pyrazolo[1,5-a]pyrimidine-3-carboxamide trifluoroacetate] | 245
Cn1cc(NC(=O)c2cnn3ccc(N4CCCNCC4)nc23)c(C#N)n1 [Example 125, N-(3-cyano-1-methyl-1H-pyrazol-4-yl)-5-(1,4-diazepan-1-yl)pyrazolo[1,5-a]pyrimidine-3-carboxamide trifluoroacetate] | 119
Cn1cc(NC(=O)c2cnn3ccc(N[C@@H]4CCCC(F)(F)[C@@H]4N)nc23)c(C#N)n1 [Example 126, 5-{[(1R,2R)-2-amino-3,3-difluorocyclohexyl]amino}-N-(3-cyano-1-methyl-1H-pyrazol-4-yl)pyrazolo[1,5-a]pyrimidine-3-carboxamide trifluoroacetate] | 70
O=C(Nc1ccsc1Br)c1cnn2ccc(N3CCCNCC3)nc12 [Example 127, N-(2-bromothiophen-3-yl)-5-(1,4-diazepan-1-yl)pyrazolo[1,5-a]pyrimidine-3-carboxamide trifluoroacetate] | 419
N[C@@H]1[C@H](Nc2ccn3ncc(C(=O)Nc4ccsc4Br)c3n2)CCCC1(F)F [Example 128, 5-{[(1R,2R)-2-amino-3,3-difluorocyclohexyl]amino}-N-(2-bromothiophen-3-yl)pyrazolo[1,5-a]pyrimidine-3-carboxamide trifluoroacetate] | 1240
N[C@H]1CCCC[C@H]1Nc1ccn2ncc(C(=O)Nc3ccsc3Br)c2n1 [Example 129, 5-{[(1R,2S)-2-aminocyclohexyl]amino}-N-(2-bromothiophen-3-yl)pyrazolo[1,5-a]pyrimidine-3-carboxamide trifluoroacetate] | 2
O=C(Nc1ccccc1C(F)F)c1cnn2ccc(N3CCCNCC3)nc12 [Example 130, 5-(1,4-diazepan-1-yl)-N-[2-(difluoromethyl)phenyl] pyrazolo[1,5-a]pyrimidine-3-carboxamide] | 8810
N[C@H]1CCCC[C@H]1Nc1ccn2ncc(C(=O)Nc3ccccc3C(F)F)c2n1 [Example 131, 5-{[(1R,2S)-2-aminocyclohexyl]amino}-N-[2-(difluoromethyl)phenyl] pyrazolo[1,5-a]pyrimidine-3-carboxamide trifluoroacetate] | 8
N[C@@H]1[C@H](Nc2ccn3ncc(C(=O)Nc4ccccc4C(F)F)c3n2)CCCC1(F)F [Example 132, 5-{[(1R,2R)-2-amino-3,3-difluorocyclohexyl]amino}-N-[2-(difluoromethyl)phenyl] pyrazolo[1,5-a]pyrimidine-3-carboxamide trifluoroacetate] | 2100
N#Cc1sccc1NC(=O)c1cnn2ccc(N[C@@H]3CCCC(F)(F)[C@@H]3N)nc12 [Example 133, 5-{[(1R,2R)-2-amino-3,3-difluorocyclohexyl]amino}-N-(2-cyanothiophen-3-yl)pyrazolo[1,5-a]pyrimidine-3-carboxamide trifluoroacetate] | 95
